Source: US20260027121A1, “LIGAND ACTING ON ADENOSINE RECEPTORS AND COMPOSITION COMPRISING SAME FOR PREVENTION, ALLEVIATION, OR TREATMENT OF OBESITYS” (FUTURE MEDICINE CO., LTD., priority 2022, published 2026)

Assays:
[1] = target: T1, A3AR (Homo sapiens, UniProt P0DMS8); assay: cAMP assay at A3AR using full agonist Cl-IB-MECA; type: cell-based; settings: FIG. 1C
T1 sequence (P0DMS8 1-318): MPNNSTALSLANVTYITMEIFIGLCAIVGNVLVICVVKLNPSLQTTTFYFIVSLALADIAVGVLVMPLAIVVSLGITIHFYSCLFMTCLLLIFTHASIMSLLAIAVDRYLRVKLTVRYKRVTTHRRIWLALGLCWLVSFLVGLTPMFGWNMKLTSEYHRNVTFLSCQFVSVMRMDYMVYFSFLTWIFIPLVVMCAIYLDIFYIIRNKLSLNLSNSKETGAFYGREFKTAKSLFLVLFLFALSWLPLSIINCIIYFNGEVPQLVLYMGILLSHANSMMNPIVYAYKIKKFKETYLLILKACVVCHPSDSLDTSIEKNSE

[2] = tested on: brown adipocytes; assay: Cytotoxicity / cell viability (EZ-CYTOX); type: cell-based, mouse; settings: 24 hours
Procedure: (§1) Adipocyte precursor cells capable of differentiating into brown adipocytes were isolated from mouse brown adipose tissue. Cells were cultured in Dulbecco's modified Eagle's medium (Welgene, LM001-07) containing 10% fetal bovine serum (FBS, Gibco, 16000044) and 1% Penicillin Streptomycin (Welgene, LS202-02) at 37° C. in a humidified atmosphere with 5% CO2. When the cells reached about 100% confluency, the cells were exposed to a differentiation medium supplemented with 2.5 mM isobutyl methylxanthine (IBMX, Cayman, I5879), 0.125 mM indomethacin (Cayman, 70270), 1 μM dexamethasone (Cayman), 1 μg/mL insulin (Sigma, I9278), and 1 nM triiodothyronine (T3, Cayman, 6028) for 3 days for adipogenesis. Then, the cells were maintained in a growth medium containing 1 μg/mL insulin and 1 nM triiodothyronine (T3) for 3 days.
LJ-4378 is a dual-acting ligand with A2AAR agonist and A3AR antagonist activity. Cell viability was evaluated according to the manufacturer's instructions using EZ-CYTOX (DoGEN, EZ-3000). Absorbance was measured at 450 nm using a microplate reader (Thermo MULTISKAN GO, 8816-2015).

[3] = tested on: brown adipocytes; assay: Lipolysis: glycerol and free fatty acid levels in conditioned medium; type: cell-based, mouse; settings: 0.1 μM, 24 hours
Procedure: as §1
The free fatty acid (FFA) levels in the medium were measured using an NEFA reagent (WAKO, 436-91693) according to the manufacturer's product protocol.
Glycerol and free fatty acid (FFA) levels in a medium were measured using a glycerol reagent (Sigma Aldrich, F6428) and a NEFA reagent (WAKO, 436-91693) according to the manufacturer's product protocols.

[4] = tested on: brown adipocytes; assay: Immunoblot of mitochondrial proteins and UCP1 in brown adipocytes; type: cell-based, mouse
Procedure: as §1
In the case of Western blots, the primary antibodies used for Western blots are summarized in [Table 2] above. An anti-rabbit horseradish peroxidase antibody (1:3000, Thermo Fisher, 31460) and an anti-mouse horseradish peroxidase antibody (1:3000, Jackson, 115-035-174) were used as secondary antibodies. All antibodies were diluted in a blocking buffer (5% skimmed milk or 5% bovine serum albumin in TBST). Western blot images were acquired using a Fusion Solo chemiluminescence imaging system (Vilber Lourmat) and analyzed with Evolution Capt software (version 17.03). NIH ImageJ software was used for quantification.

[5] = tested on: brown adipocytes; assay: MitoTracker staining; type: cell-based, mouse; settings: 0.1 μM, FIG. 4B
Procedure: The cells were exposed to MitoTracker™ Red CMXRos (1:3000, Invitrogen, M7512) at 37° C. for 15 minutes to stain mitochondria, and then fixed in 4% paraformaldehyde (PFA, Sigma, 158127). Images were acquired with an LSM800 confocal microscope (Zeiss, Germany) and analyzed with Zen software (version 3.0).

[6] = tested on: C57BL/6 male mice; assay: Indirect calorimetry (PhenoMaster); type: in vivo, mouse; settings: 1 mg·kg-1day-1 intraperitoneally, 10 days
Procedure: 6-week-old C57BL/6 male mice and CIDEA reporter mice were used according to the approved protocols by Institutional Animal Care and Use Committees of Seoul National University (SNU-201107-1, SNU-201221-3) for in vivo experiments. The mice were housed under a 12 h-light/12 h-dark cycle condition with free access to a normal chow diet (NCD, Purina Lab, 38057, protein: 24.52% calories, carbohydrate: 63.07% calories, and fat: 12.41% calories) and water at 22±1° C. The mice were treated intraperitoneally with LJ-4378 (1 mg·kg-1day-1) dissolved in 0.2% DMSO (diluted in PBS) for 10 days.
Indirect calorimetry was performed using a PhenoMaster (TSE Systems) to measure expenditure (EE), VO2, VCO2, activity, and food intake. Body components were measured by nuclear magnetic resonance scanning Echo MRI-700 (Echo Medical Systems).

[7] = tested on: CIDEA reporter mice; assay: qPCR of brown adipocyte markers in brown adipose tissue; type: in vivo, mouse; settings: BAT, 1 mg kg-1/day, 10 days
Procedure: Mice were treated with vehicle (CTL), LJ-4378 (LJ, 1 mg kg-1/day), […] (CGS21680, 1 mg kg-1/day), or A3 antagonist (LJ-4433, 1 mg kg-1/day) for 10 days. (A-B) Representative bioluminescence in dorsal and lateral positions (n=3, mean±SEM, ** p<0.01, **** p<0.0001). (C) Representative ex vivo fluorescence image and quantification of fluorescence intensity of BAT and iWAT (n=3, mean±SEM, ** p<0.01, **** p<0.0001). (D) qPCR analysis of UCP1 and CIDEAM RNA expression levels of brown adipose tissue (BAT) (n=3, mean±SEM, * p<0.05, ** p<0.01, *** p<0.001).
qPCR analysis was performed to investigate the adenosine receptor expression levels in brown adipocytes differentiated from immortalized brown adipocyte precursor cells. Primers used for the qPCR analysis are listed in the following [Table 3].

- KB value at A3AR [1]: nM level
Structure (SMILES): CCCCC#Cc1nc(N)c2ncn([C@@H]3SC[C@@H](O)[C@H]3O)c2n1 [LJ-4378, 2-(6-amino-2-(hex-1-yn-1-yl)-9H-purin-9-yl)tetrahydrothiophene-3,4-diol]
- concentrations with no effect on cell viability [2]: less than 100 μM
- free fatty acid (FFA) level, fold increase ([3]; FIG. 2): 1.92±0.03 fold
- glycerol level in conditioned medium, fold change ([3]; FIG. 3B): 1.61±0.07 fold
- FFA level in conditioned medium, fold change ([3]; FIG. 3C): 1.59±0.1 fold
- COXIV expression level, fold increase ([4]; 0.1 μM, 24 hours, FIG. 4A): 2.18±0.15 fold
- UCP1 expression level, fold increase ([4]; 0.1 μM, 24 hours, FIG. 4A): 2.93±0.23 fold
- COXIV, fold increase ([4]; 0.1 μM, 24 hours, FIG. 4D): 2.53±0.08 fold
- MCAD, fold increase ([4]; 0.1 μM, 24 hours, FIG. 4D): 4.91±0.02 fold
- UCP1, fold increase ([4]; 0.1 μM, 24 hours, FIG. 4D): 2.67±0.38 fold
- ATP5A protein, fold increase ([4]; 10^−5, 48 hours): 3.72±0.04 fold
- MCAD protein, fold increase ([4]; 10^−5, 48 hours): 2.13±0.03 fold
- SDHB protein, fold increase ([4]; 10^−5, 48 hours): 3.71±0.25 fold
- UQCRC2 protein, fold increase ([4]; 10^−5, 48 hours): 4.02±0.08 fold
- ATP5A protein, fold increase ([4]; 10^−7, 48 hours): 3.94±0.06 fold
- MCAD protein, fold increase ([4]; 10^−7, 48 hours): 1.79±0.09 fold
- SDHB protein, fold increase ([4]; 10^−7, 48 hours): 3.41±0.47 fold
- UQCRC2 protein, fold increase ([4]; 10^−7, 48 hours): 4.21±0.13 fold
- ATP5A protein, fold increase ([4]; 10^−9 M, 48 hours): 3.51±0.05 fold
- MCAD protein, fold increase ([4]; 10^−9 M, 48 hours): 1.79±0.03 fold
- SDHB protein, fold increase ([4]; 10^−9 M, 48 hours): 3.47±0.18 fold
- UQCRC2 protein, fold increase ([4]; 10^−9 M, 48 hours): 3.96 fold
- ATP5A protein, fold increase ([4]; 10^−11 M, 48 hours): 2.20±0.08 fold
- MCAD protein, fold increase ([4]; 10^−11 M, 48 hours): 1.53±0.03 fold
- SDHB protein, fold increase ([4]; 10^−11 M, 48 hours): 1.87±0.28 fold
- UQCRC2 protein, fold increase ([4]; 10^−11 M, 48 hours): 2.15±0.03 fold
- mitochondrial membrane potential (MitoTracker staining), fold increase [5]: 2.12±0.06 fold
- increase of energy expenditure [6]: 17.0%
- increase of oxygen consumption [6]: 17.8%
- Cidea mRNA level, fold increase [7]: 1.72±0.06 fold
- Ucp1 mRNA level, fold increase [7]: 2.13±0.21 fold
